The source of these data is the PolyMetriX glass transition set.

`*/C=C/CCCCCCC(Cl)CCCCCC*` (repeat unit): the glass transition temperature is -57.00 °C.
`*/C=C/CCCCCCCCCC(CCCCCCCCC*)COCCOCCOCCOCCOCCCCCC` (repeat unit) yielded a glass transition temperature of -76.00 °C.
`*/C=C/CCCCCCCCCC(Cl)CCCCCCCCC*` (repeat unit): the glass transition temperature was -37.00 °C.
`*/C=C/c1ccc(OC(=O)CCCCCCCCC(=O)Oc2ccc(-c3nnc(*)s3)cc2)cc1` (repeat unit) displayed a glass transition temperature of 30.00 °C.
To `*C(=O)Nc1ccc(C(c2ccc(NC(=O)c3ccc(N4C(=O)c5ccc(*)cc5C4=O)cc3C)cc2)(C(F)(F)F)C(F)(F)F)cc1` (repeat unit) belongs 355.00 °C; to `*C/C=C/COC(=O)C(Cc1ccccc1)NC(=O)CCCCCCCCC(=O)NC(Cc1ccccc1)C(=O)O*` (repeat unit), 46.00 °C.
To `*C/C=C/COC(=O)CCCCCCCCC(=O)O*` (repeat unit) belongs -41.00 °C.
`*CC#CCOC(=O)CCCCCCC(=O)O*` (repeat unit) displayed a glass transition temperature of -38.00 °C.
Next, `*CC#CCOC(=O)CCCCCCCCC(=O)O*` (repeat unit): -26.50 °C.
Next, `*CC(O)COC(=O)CCCCC(=O)OCC(O)COc1ccc(O*)cc1` (repeat unit): 19.00 °C.
Compound `*CC(O)COC(=O)CCCCCCCCC(=O)OCC(O)COc1ccc(C(=O)Oc2ccc(O*)cc2)cc1` (repeat unit) had a glass transition temperature of 36.00 °C.
Take `*CC1CCC(CNC(=O)CCCCCCCCC(=O)N*)CC1` (repeat unit): the glass transition temperature came out at 89.00 °C.
`*CC1CCC(CNC(=O)CCCCCCCCCCC(=O)N*)CC1` (repeat unit) had a glass transition temperature of 85.00 °C.
`*CCCC1(CCCNC(=O)CCCCCCCCC(=O)N*)c2ccccc2-c2ccccc21` (repeat unit): the glass transition temperature came to 85.00 °C.
Consider `*CCCCCC(*)CCCCCCCCCC` (repeat unit), for which the glass transition temperature was -65.00 °C.
Next, `*CCCCCC(Cl)C(*)Cl` (repeat unit): -17.00 °C.
To `*CCCCCC(c1ccc(O)cc1)C(*)c1ccc(O)cc1C` (repeat unit) belongs 16.00 °C; to `*CCCCCCCC(*)C` (repeat unit), -58.00 °C.
On to `*CCCCCCCC(=O)OCCCCC1COC(*)O1` (repeat unit), for which the glass transition temperature is -44.00 °C.
Next, `*CCCCCCCC(=O)OCCOC(=O)CCCCCCCC1OCC2(COC(*)OC2)CO1` (repeat unit): 0.00 °C.
Compound `*CCCCCCCCC(c1ccc(O)cc1)C(*)c1ccc(O)cc1C` (repeat unit) yielded a glass transition temperature of -12.00 °C.
With `*CCCCCCCCCCOC(=O)NNC(=O)CCCCCCCCC(=O)NNC(=O)O*` (repeat unit), the glass transition temperature worked out at 34.00 °C.
As for `*CCCCCCNC(=O)CCCCCC(=O)N*` (repeat unit), the glass transition temperature was determined as 54.00 °C.
In the case of `*CCCCCCNC(=O)CCCCCCC(=O)N*` (repeat unit), the glass transition temperature was 57.00 °C.
As for `*CCCCCCc1nc2cc(NC(=O)CCCCCCC(=O)Nc3ccc4oc(*)nc4c3)ccc2o1` (repeat unit), the glass transition temperature came to 77.00 °C.
Next, `*CCCCCCc1nc2cc(NC(=O)CCCCCCCCC(=O)Nc3ccc4oc(*)nc4c3)ccc2o1` (repeat unit): 86.00 °C; `*CCCCOC(=O)CCCCCCCCC(=O)O*` (repeat unit): -57.00 °C; `*CCCNC(=O)CCCCCCCCC(=O)NCCCOCCOCCO*` (repeat unit): 40.00 °C.
Next, `*CCCOC(=O)CCCCCCC(=O)O*` (repeat unit): -52.50 °C.
For `*CCCP(=O)(CCCNC(=O)CCCCC(=O)N*)c1ccccc1` (repeat unit), the glass transition temperature is 55.00 °C.
`*CCOC(=O)CCCCCCCCC(=O)OCCOC(=O)c1ccc(C(=O)O*)cc1` (repeat unit): the glass transition temperature is -6.50 °C.
`*CCOCCOC(=O)CCCCCC(=O)O*` (repeat unit) yielded a glass transition temperature of -41.50 °C.
`*CCOCCOCCOC(=O)CCCCC(=O)O*` (repeat unit) yielded a glass transition temperature of -49.00 °C.
`*CNC(=O)CCCCCCCCC(=O)NCC1COC(*)CO1` (repeat unit) returned a glass transition temperature of 73.00 °C.
Next, `*Cc1ccc(CNC(=O)CCCCCCCCCC(=O)N*)cc1` (repeat unit): 110.00 °C.
To `*Cc1ccc(CNC(=O)CCCCCCCCCCC(=O)N*)cc1` (repeat unit) belongs 105.00 °C; to `*Nc1cc(NC(=O)c2cc(NC(=O)C(C(C)CC)N3C(=O)c4ccccc4C3=O)cc(C(*)=O)c2)ccc1C` (repeat unit), 166.00 °C; to `*Nc1ccc(-c2ccc(NC(=O)c3cc(NC(=O)c4ccc(NC(=O)C(C)N5C(=O)c6ccccc6C5=O)cc4)cc(C(*)=O)c3)cc2)cc1` (repeat unit), 202.00 °C.
To `*Nc1ccc(C(c2ccc(NC(=O)c3cc(NC(=O)CCCCCN4C(=O)c5ccccc5C4=O)cc(C(*)=O)c3)cc2)(C(F)(F)F)C(F)(F)F)cc1` (repeat unit) belongs 225.00 °C; to `*Nc1ccc(C(c2ccc(NC(=O)c3cc(NC(=O)CCCN4C(=O)c5ccccc5C4=O)cc(C(*)=O)c3)cc2)(C(F)(F)F)C(F)(F)F)cc1` (repeat unit), 240.00 °C; to `*Nc1ccc(Cc2ccc(NC(=O)CCCCCCCCC(*)=O)cc2)cc1` (repeat unit), 160.00 °C.
Consider `*Nc1ccc(NC(=O)CCCCC(*)=O)cc1` (repeat unit), for which the glass transition temperature worked out at 133.00 °C.
Next, `*Nc1ccc(NC(=O)CCCCCCC(*)=O)cc1` (repeat unit): 138.00 °C; `*Nc1ccc(NC(=O)CCCCCCCC(*)=O)cc1` (repeat unit): 130.00 °C; `*OC(=O)C(Cc1ccccc1)NC(=O)CCCCCCC(=O)NC(Cc1ccccc1)C(=O)OC1COC2C(*)COC12` (repeat unit): 91.00 °C.
The compound `*OC(=O)C(Cc1ccccc1)NC(=O)CCCCCCCCC(=O)NC(Cc1ccccc1)C(=O)OC1COC2C(*)COC12` (repeat unit) registered a glass transition temperature of 74.00 °C.
To `*OC(=O)CCCCCCCCC(*)=O` (repeat unit) belongs 60.00 °C; to `*OC(=O)CNC(=O)CNC(=O)CCCCCCCCC(=O)NCC(=O)NCC(=O)OC1COC2C(*)COC12` (repeat unit), 47.00 °C; to `*OCCCCOC1COC2C(OC(=O)CCCCC(=O)OC3COC4C(*)COC34)COC12` (repeat unit), 114.00 °C.
With `*O[Si](C)(C)O[Si](C)(C)OC(C)CCCCC(*)C` (repeat unit), the glass transition temperature is -87.00 °C.
Next, `*Oc1c(-c2ccccc2)cc(Cc2cc(-c3ccccc3)c(OC(=O)CCCCCC(*)=O)c(-c3ccccc3)c2)cc1-c1ccccc1` (repeat unit): 111.00 °C; `*Oc1c(-c2ccccc2)cc(Cc2cc(-c3ccccc3)c(OC(=O)CCCCCCCCC(*)=O)c(-c3ccccc3)c2)cc1-c1ccccc1` (repeat unit): 92.00 °C.
Next, `*Oc1ccc(-c2ccc(NC(=O)c3cc(C(=O)Nc4ccc(-c5ccc(Oc6ccc(C(c7ccc(*)cc7)(C(F)(F)F)C(F)(F)F)cc6)c(C(F)(F)F)c5)cc4)cc(C(C)(C)C)c3)cc2)cc1C(F)(F)F` (repeat unit): 251.50 °C; `*Oc1ccc(C2(c3ccc(OC(=O)CCCCCCCC(*)=O)cc3)c3ccccc3-c3ccccc32)cc1` (repeat unit): 150.00 °C; `*Oc1ccc(C2(c3ccc(OC(=O)CCCCCCCCCC(*)=O)cc3)c3ccccc3-c3ccccc32)cc1` (repeat unit): 136.00 °C.
Next, `*Oc1ccc(CNC(=O)CCCCC(=O)NCc2ccc(OC3COC4C(*)COC34)cc2)cc1` (repeat unit): 116.00 °C; `*Oc1ccc(Cc2ccc(OC(=O)CCCCC(*)=O)cc2)cc1` (repeat unit): 60.50 °C; `*Oc1ccc(NC(=O)CCCCCCCCC(=O)Nc2ccc(*)cc2)cc1` (repeat unit): 160.00 °C.
In the case of `*Oc1ccc(OC(=O)CCCCCCCCC(*)=O)cc1` (repeat unit), the glass transition temperature was 52.80 °C.
To `*Oc1ccc(Oc2ccc(C(=O)c3ccc(NC(=O)CCCCCCCCC(=O)Nc4ccc(C(=O)c5ccc(*)cc5)cc4)cc3)cc2)cc1` (repeat unit) belongs 130.00 °C; to `*Oc1ccc(Oc2ccc(C(=O)c3cccc(NC(=O)CCCCCCCCC(=O)Nc4cccc(C(=O)c5ccc(*)cc5)c4)c3)cc2)cc1` (repeat unit), 144.00 °C.
`*Oc1cccc(NC(=O)CCCCC(=O)Nc2ccc(*)cc2)c1` (repeat unit) had a glass transition temperature of 160.00 °C.
In the case of `*Oc1cccc(NC(=O)CCCCCC(=O)Nc2ccc(*)cc2)c1` (repeat unit), the glass transition temperature is 130.00 °C.
To `*Oc1cccc(NC(=O)CCCCCCCCC(=O)Nc2ccc(*)cc2)c1` (repeat unit) belongs 125.00 °C; to `*Oc1cccc(Oc2ccc(C(=O)c3ccc(NC(=O)CCCCCCCCC(=O)Nc4ccc(C(=O)c5ccc(*)cc5)cc4)cc3)cc2)c1` (repeat unit), 143.00 °C.
The compound `*c1ccc(NC(=O)CCCCCCCC(=O)Nc2ccc(S(*)(=O)=O)cc2)cc1` (repeat unit) came in with a glass transition temperature of 178.00 °C.
To `*c1ccc(OCCCCCCCCCCCOC(=O)CCCCC(=O)OCCCCCCCCCCCOc2ccc(-c3nnc(*)s3)cc2)cc1` (repeat unit) belongs 69.00 °C.
Next, `*c1ccc2c(c1)C(=O)N(c1cc(C(=O)Nc3ccc(C(c4ccc(NC(=O)c5ccc(C)c(N6C(=O)c7ccc(C(*)(C(F)(F)F)C(F)(F)F)cc7C6=O)c5)cc4)(C(F)(F)F)C(F)(F)F)cc3)ccc1C)C2=O` (repeat unit): 293.50 °C.
